# Where two headings read alike, the source gives them in different places.
# Tests used:
# EGFR del19/T790M/C797S = EGFR del19/T790M/C797S (Homo sapiens, UniProt P00533, C797S/DEL746-750/T790M); test: Biochemical EGFR kinase assay (Lance Ultra TR-FRET), triple mutant del19/T790M/C797S
# Summary of the method: (§1)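 Enzyme reactions lasted 1 hour at room temperature with test compounds between 0.003 and 10 μM, followed by 10 mM EDTA quench.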
# EGFR wildtype = EGFR wildtype (Homo sapiens, UniProt P00533); test: Biochemical EGFR kinase assay (Lance Ultra TR-FRET), wildtype
# Summary of the method: as §1
# EGFR del19/C797S = EGFR del19/C797S (Homo sapiens, UniProt P00533, C797S/DEL746-750); test: Biochemical EGFR kinase assay (Lance Ultra TR-FRET), double mutant del19/C797S
# Summary of the method: as §1
# EGFR L858R/C797S = EGFR L858R/C797S (Homo sapiens, UniProt P00533, C797S/L858R); test: Biochemical EGFR kinase assay (Lance Ultra TR-FRET), double mutant L858R/C797S
# Summary of the method: as §1
# EGFR L858R/T790M/C797S = EGFR L858R/T790M/C797S (Homo sapiens, UniProt P00533, C797S/L858R/T790M); test: Biochemical EGFR kinase assay (Lance Ultra TR-FRET), triple mutant L858R/T790M/C797S
# Summary of the method: as §1
# [1] = IC50 del19/T790M/C797S (nM) 100 μM ATP, 100 μM ATP
# [2] = IC50 WT (nM) 100 μM ATP, 100 μM ATP
# [3] = IC50 del19/C797S (nM) 100 μM ATP, 100 μM ATP
# [4] = IC50 L858R/C797S (nM) 100 μM ATP, 100 μM ATP
# [5] = IC50 L858R/T790M/C797S (nM) 100 μM ATP, 100 μM ATP
# [6] = Km ATP, read-out: IC50 del19/T790M/C797S (nM) Km ATP
# [7] = Km ATP, read-out: IC50 WT (nM) Km ATP
# [8] = Km ATP, read-out: IC50 L858R/C797S (nM) Km ATP
# [9] = Km ATP, read-out: IC50 L858R/T790M/C797S (nM) Km ATP
# [10] = Km ATP, read-out: IC50 del19/C797S (nM) Km ATP
# EGFR del19/T790M/C797S, sequence (P00533 with tags, fused parts or gaps DEL746-750/T790M/C797S): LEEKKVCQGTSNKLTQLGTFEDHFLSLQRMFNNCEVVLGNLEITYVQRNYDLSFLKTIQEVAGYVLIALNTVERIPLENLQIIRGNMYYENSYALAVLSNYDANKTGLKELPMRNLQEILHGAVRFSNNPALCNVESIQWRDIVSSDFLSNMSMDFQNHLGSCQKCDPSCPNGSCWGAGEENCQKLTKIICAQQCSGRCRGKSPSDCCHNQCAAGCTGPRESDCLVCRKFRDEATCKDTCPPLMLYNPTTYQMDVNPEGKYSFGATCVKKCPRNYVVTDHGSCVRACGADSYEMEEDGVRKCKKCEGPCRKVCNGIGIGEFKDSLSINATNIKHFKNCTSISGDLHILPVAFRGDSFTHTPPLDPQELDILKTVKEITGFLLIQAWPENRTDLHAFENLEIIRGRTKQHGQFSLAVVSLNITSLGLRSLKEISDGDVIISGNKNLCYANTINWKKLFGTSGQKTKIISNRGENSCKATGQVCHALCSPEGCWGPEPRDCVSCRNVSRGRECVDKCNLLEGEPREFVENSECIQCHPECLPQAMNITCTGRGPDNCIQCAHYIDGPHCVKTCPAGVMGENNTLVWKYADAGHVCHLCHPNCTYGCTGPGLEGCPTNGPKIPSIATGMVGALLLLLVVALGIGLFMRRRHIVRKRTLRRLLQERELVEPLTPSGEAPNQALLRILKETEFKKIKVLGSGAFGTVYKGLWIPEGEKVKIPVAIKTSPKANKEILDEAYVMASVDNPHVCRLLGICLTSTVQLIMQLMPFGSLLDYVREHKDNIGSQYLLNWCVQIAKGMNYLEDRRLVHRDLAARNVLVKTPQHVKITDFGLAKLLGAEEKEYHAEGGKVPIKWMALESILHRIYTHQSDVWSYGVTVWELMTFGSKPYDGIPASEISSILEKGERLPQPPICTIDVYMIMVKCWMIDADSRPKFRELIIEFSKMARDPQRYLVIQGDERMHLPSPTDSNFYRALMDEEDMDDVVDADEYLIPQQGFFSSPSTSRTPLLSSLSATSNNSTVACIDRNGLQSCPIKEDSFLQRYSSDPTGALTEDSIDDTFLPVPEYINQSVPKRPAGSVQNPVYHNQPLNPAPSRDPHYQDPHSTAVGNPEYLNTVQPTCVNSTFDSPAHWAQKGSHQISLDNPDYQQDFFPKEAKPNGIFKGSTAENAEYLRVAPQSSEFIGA
# EGFR del19/C797S, sequence (P00533 with tags, fused parts or gaps DEL746-750/C797S): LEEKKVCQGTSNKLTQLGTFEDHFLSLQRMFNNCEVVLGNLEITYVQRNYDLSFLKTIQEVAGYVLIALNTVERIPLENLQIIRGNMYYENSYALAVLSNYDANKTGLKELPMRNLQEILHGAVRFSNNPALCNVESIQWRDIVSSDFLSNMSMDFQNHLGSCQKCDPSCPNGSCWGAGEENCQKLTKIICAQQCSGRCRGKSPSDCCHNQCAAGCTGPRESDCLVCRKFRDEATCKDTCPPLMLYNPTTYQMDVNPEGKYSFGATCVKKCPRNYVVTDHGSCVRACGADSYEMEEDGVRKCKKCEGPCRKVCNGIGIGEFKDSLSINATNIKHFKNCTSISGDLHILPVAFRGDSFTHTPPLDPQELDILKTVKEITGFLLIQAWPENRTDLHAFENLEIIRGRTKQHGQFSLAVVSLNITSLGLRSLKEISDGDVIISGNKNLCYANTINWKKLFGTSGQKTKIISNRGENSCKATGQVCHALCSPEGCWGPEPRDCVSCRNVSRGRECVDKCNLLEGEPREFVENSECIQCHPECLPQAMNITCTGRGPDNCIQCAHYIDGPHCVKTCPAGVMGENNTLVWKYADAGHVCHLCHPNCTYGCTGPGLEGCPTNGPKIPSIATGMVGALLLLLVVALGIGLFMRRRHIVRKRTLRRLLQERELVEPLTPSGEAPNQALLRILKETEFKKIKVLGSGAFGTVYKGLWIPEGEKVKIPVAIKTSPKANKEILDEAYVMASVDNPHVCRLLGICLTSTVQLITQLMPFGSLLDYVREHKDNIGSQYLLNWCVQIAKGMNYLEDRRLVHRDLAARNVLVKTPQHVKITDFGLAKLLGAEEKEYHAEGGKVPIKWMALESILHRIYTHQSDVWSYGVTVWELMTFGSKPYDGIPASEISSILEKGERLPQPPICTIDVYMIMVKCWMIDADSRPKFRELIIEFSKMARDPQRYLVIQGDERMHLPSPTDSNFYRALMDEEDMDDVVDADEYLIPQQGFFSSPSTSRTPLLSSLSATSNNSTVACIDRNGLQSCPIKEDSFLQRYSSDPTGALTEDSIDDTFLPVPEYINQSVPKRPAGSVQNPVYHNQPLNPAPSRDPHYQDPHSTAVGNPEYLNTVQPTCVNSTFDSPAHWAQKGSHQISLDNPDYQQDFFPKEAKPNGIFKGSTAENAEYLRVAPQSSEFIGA
# EGFR L858R/C797S, sequence (P00533 25-1210 C797S/L858R): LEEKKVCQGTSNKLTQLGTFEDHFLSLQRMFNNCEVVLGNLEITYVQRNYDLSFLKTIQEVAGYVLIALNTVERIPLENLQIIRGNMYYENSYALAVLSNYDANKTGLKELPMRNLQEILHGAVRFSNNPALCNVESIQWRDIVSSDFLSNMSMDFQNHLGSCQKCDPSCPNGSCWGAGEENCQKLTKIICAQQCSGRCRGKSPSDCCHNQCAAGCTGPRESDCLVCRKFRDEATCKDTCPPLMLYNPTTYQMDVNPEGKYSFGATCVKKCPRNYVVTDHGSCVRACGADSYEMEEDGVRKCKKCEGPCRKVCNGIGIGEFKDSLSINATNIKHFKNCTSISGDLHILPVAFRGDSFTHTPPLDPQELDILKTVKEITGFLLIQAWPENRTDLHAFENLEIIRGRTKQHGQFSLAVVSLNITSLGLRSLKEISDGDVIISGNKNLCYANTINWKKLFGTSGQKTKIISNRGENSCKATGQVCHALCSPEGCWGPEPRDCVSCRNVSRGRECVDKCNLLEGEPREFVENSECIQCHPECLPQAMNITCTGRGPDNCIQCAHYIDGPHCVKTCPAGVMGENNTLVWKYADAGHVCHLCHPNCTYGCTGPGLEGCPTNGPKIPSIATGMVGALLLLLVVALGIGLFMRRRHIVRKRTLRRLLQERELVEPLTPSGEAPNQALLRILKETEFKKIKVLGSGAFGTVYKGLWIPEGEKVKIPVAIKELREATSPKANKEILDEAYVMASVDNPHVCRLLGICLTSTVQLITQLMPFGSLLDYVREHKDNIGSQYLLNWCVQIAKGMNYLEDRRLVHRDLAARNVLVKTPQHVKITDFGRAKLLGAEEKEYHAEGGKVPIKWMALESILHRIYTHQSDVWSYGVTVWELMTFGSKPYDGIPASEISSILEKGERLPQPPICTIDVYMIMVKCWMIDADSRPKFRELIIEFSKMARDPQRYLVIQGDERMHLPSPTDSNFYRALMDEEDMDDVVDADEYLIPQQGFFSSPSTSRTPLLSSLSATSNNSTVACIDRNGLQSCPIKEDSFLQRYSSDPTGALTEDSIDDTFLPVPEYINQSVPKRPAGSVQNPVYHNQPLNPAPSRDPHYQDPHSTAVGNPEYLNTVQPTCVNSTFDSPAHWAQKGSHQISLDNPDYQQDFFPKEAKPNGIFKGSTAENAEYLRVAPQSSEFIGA
# EGFR wildtype, sequence (P00533 25-1210): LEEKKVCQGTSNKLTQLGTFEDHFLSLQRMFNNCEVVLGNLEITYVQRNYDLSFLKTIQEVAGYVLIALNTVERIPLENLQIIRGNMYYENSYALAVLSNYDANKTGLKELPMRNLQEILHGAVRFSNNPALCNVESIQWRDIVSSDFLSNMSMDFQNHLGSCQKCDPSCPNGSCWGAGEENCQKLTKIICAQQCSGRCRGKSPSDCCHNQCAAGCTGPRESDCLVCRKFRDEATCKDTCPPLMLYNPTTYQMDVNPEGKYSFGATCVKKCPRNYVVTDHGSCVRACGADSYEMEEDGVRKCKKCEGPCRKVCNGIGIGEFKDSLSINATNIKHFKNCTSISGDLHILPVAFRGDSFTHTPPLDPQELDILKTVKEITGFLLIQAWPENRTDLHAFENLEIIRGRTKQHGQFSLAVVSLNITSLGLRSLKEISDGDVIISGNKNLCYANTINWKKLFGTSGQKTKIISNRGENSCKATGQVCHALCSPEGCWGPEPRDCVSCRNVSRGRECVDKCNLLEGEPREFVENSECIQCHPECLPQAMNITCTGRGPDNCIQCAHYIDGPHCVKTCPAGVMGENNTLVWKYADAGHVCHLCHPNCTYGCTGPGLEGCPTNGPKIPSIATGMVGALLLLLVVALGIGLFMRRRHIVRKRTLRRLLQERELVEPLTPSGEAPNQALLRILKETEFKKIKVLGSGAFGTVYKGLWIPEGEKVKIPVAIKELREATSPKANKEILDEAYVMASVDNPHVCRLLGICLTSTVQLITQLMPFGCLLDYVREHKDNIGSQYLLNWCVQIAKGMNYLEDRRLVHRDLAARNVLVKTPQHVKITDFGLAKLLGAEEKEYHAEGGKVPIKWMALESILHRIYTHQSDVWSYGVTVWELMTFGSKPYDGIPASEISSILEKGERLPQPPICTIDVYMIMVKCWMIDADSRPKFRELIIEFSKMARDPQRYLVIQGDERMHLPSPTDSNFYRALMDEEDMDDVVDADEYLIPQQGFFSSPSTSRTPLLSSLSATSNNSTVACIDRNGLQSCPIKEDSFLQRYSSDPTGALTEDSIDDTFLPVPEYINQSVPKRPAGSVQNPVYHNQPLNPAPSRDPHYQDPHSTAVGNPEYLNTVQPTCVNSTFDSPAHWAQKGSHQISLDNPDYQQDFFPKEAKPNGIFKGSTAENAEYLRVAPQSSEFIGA
Compound,IC50 (EGFR del19/T790M/C797S; [1]),IC50 (EGFR wildtype; [2]),IC50 (EGFR del19/C797S; [3]),IC50 (EGFR L858R/C797S; [4]),IC50 (EGFR L858R/T790M/C797S; [5]),IC50 (EGFR del19/T790M/C797S; [6]),IC50 (EGFR wildtype; [7]),IC50 (EGFR L858R/C797S; [8]),IC50 (EGFR L858R/T790M/C797S; [9]),IC50 (EGFR del19/C797S; [10])
"C[C@]1(O)CC[C@@H](Nc2cc(Nc3ccnc(-c4cnn(S(=O)(=O)C5CC5)c4)n3)ncc2-c2ccc(C(F)F)cn2)CC1 [Example 63, (1s,4s)-4-((6′-((2-(1-(Cyclopropylsulfonyl)-1H-pyrazol-4-yl)pyrimidin-4-yl)amino)-5-(difluoromethyl)-[2,3′-bipyridin]-4′-yl)amino)-1-methylcyclohexan-1-ol]",0.2 nM,> 10000 nM,0.8 nM,5.4 nM,0.2 nM,,,,,
"CN(C)Cc1ccnc(-c2cnc(Nc3ccnc(-c4cnn(S(=O)(=O)C5CC5)c4)n3)cc2N[C@H]2CC[C@@](C)(O)CC2)c1 [Example 64, (1s,4s)-4-((6′-((2-(1-(Cyclopropylsulfonyl)-1H-pyrazol-4-yl)pyrimidin-4-yl)amino)-4-((dimethylamino)methyl)-[2,3′-bipyridin]-4′-yl)amino)-1-methylcyclohexan-1-ol]",0.1 nM,1170 nM,0.2 nM,0.9 nM,0.3 nM,0.1 nM,2.4 nM,0.2 nM,0.1 nM,
"CN(C)Cc1cnc(-c2cnc(Nc3ccnc(-c4cnn(S(=O)(=O)C5CC5)c4)n3)cc2N[C@H]2CC[C@@](C)(O)CC2)cn1 [Example 65, (1s,4s)-4-((2-((2-(1-(Cyclopropylsulfonyl)-1H-pyrazol-4-yl)pyrimidin-4-yl)amino)-5-(5-((dimethylamino)methyl)pyrazin-2-yl)pyridin-4-yl)amino)-1-methylcyclohexan-1-ol]",0.1 nM,1140 nM,0.2 nM,0.9 nM,0.3 nM,0.1 nM,2.4 nM,0.1 nM,0.1 nM,0.3 nM
"C[C@]1(O)CC[C@@H](Nc2cc(Nc3ccnc(-c4cnn(S(=O)(=O)C5CC5)c4)n3)ncc2-c2ccc(N3CC(F)(F)C3)nn2)CC1 [Example 66, (1s,4s)-4-((2-((2-(1-(Cyclopropylsulfonyl)-1H-pyrazol-4-yl)pyrimidin-4-yl)amino)-5-(6-(3,3-difluoroazetidin-1-yl)pyridazin-3-yl)pyridin-4-yl)amino)-1-methylcyclohexan-1-ol]",0.5 nM,> 10000 nM,0.9 nM,12.2 nM,0.5 nM,0.3 nM,11.5 nM,0.5 nM,0.1 nM,0.4 nM

# Results, then the compound that gave them:
IC50 (EGFR del19/T790M/C797S; [1]),IC50 (EGFR wildtype; [2]),IC50 (EGFR del19/C797S; [3]),IC50 (EGFR L858R/C797S; [4]),IC50 (EGFR L858R/T790M/C797S; [5]),IC50 (EGFR del19/T790M/C797S; [6]),IC50 (EGFR wildtype; [7]),IC50 (EGFR L858R/C797S; [8]),IC50 (EGFR L858R/T790M/C797S; [9]),IC50 (EGFR del19/C797S; [10]),Compound
0.3 nM,> 10000 nM,0.5 nM,4.5 nM,0.3 nM,0.3 nM,3.7 nM,0.8 nM,0.1 nM,0.5 nM,"C[C@]1(O)CC[C@@H](Nc2cc(Nc3ccnc(-c4cnn(S(=O)(=O)C5CC5)c4)n3)ncc2-c2ccc(N3CC4(COC4)C3)nn2)CC1 [Example 67, (1s,4s)-4-((5-(6-(2-Oxa-6-azaspiro[3.3]heptan-6-yl)pyridazin-3-yl)-2-((2-(1-(cyclopropylsulfonyl)-1H-pyrazol-4-yl)pyrimidin-4-yl)amino)pyridin-4-yl)amino)-1-methylcyclohexan-1-ol]"
,> 10000 nM,4.9 nM,124 nM,0.8 nM,0.9 nM,23.2 nM,1.1 nM,0.8 nM,2.8 nM,"C[C@]1(O)CC[C@@H](Nc2cc(Nc3ccnc(-c4cnn(S(=O)(=O)C5CC5)c4)n3)ncc2-c2ccc(N3CCC(F)(F)CC3)nn2)CC1 [Example 68, (1s,4s)-4-((2-((2-(1-(Cyclopropylsulfonyl)-1H-pyrazol-4-yl)pyrimidin-4-yl)amino)-5-(6-(4,4-difluoropiperidin-1-yl)pyridazin-3-yl)pyridin-4-yl)amino)-1-methylcyclohexan-1-ol]"
